From US10966426B2, “Herbicidal compositions comprising phenylpyrimidines” (BASF SE, priority 2016, dated 2021)
Like-named read-outs stand apart in the source and are kept apart here.

Key:
Type in all cases: in vivo
Echinocloa crus-galli = assay: greenhouse post-emergence treatment, ECHCG; conditions: Echinochloa crus-galli, 480 h, 20 DAT, ECHCG, dicamba SL 480 g/l solo 35 gai/ha
Summary of the method: (§1)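 Scale 0–100 damage rating (100 = complete destruction of above-ground parts, 0 = normal growth), read 2 to 4 weeks after post-emergence application of aqueous spray liquor to plants 3–15 cm tall.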

Helianthus annuus = assay: greenhouse post-emergence treatment, HELAN; conditions: Helianthus annuus, 480 h, 20 DAT, HELAN, dicamba SL 480 g/l solo 70 gai/ha
Description: The culture containers used were plastic pots containing loamy sand with approximately 3.0% of humus as substrate. The seeds of the test plants were sown separately for each species.
For the post-emergence treatment, the test plants were grown to a plant height of from 3 to 15 cm, depending on the plant habit, and only then treated with the active compounds which had been suspended or emulsified in water. To this end, the test plants were either sown directly, and grown in the same containers, or they were first grown separately as seedlings and transplanted into the test containers a few days prior to treatment.
Depending on the species, the plants were kept at 10-25° C. and 20-35° C., respectively.
The test period extended over 2 to 4 weeks. During this time, the plants were tended and their response to the individual treatments was evaluated.
Evaluation was carried out using a scale from 0 to 100. 100 means no emergence of the plants, or complete destruction of at least the above-ground parts, and 0 means no damage or normal course of growth. A good herbicidal activity is given at values of at least 70, and very good herbicidal activity is given at values of at least 85.
The respective stated components A and B, and if appropriate, C were formulated as a 10% by weight strength emulsion concentrate and, with addition of the amount of solvent system, introduced into the spray liquor used for applying the active compound. In the examples, the solvent used was water.
In the examples below, using the method of S. R. Colby (1967) “Calculating synergistic and antagonistic responses of herbicide combinations”, Weeds 15, p. 22ff., the value E, which is expected if the activity of the individual active compounds is only additive, was calculated. E=X+Y−(X·Y/100) where X=effect in percent using herbicide A at an application rate a; • Y=effect in percent using herbicide B at application rate b; • E=expected effect (in %) of herbicide A+herbicide B at application rates a+b.

Poa annua = assay: greenhouse post-emergence treatment, POAAN; conditions: Poa annua, 480 h, 20 DAT, POAAN
Summary of the method: (§2)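 Loamy sand, ~3.0% humus; species sown separately; treated at 3–15 cm height; 10% w/w EC diluted in water; 10-25° C./20-35° C. per species; 2–4 wk; visual 0–100 rating.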

Matricaria chamomilla = assay: greenhouse post-emergence treatment, MATCH; conditions: Matricaria chamomilla, 480 h, 70 gai/ha (SL 480 g/l), 20 DAT, MATCH, Table X7, read-out: % activity, solo application
Summary of the method: as §1

Galium aparine = assay: greenhouse post-emergence treatment, GALAP; conditions: Galium aparine, 480 h, 20 DAT, GALAP, dicamba SL 480 g/l solo 70 gai/ha
Summary of the method: as §1

Papaver rhoeas = assay: greenhouse post-emergence treatment, PAPRH; conditions: Papaver rhoeas, 480 h, 20 DAT, PAPRH
Summary of the method: as §1

Bromus sterilis = assay: greenhouse post-emergence treatment, BROST; conditions: Bromus sterilis, 480 h, 20 DAT, BROST
Summary of the method: (§3)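 Scoring used a 0 to 100 scale, with 100 denoting no emergence or full destruction of at least the above-ground parts, recorded within a 2 to 4 week test period. Test plants grew in loamy sand containing about 3.0% humus at 10-25° C. or 20-35° C., after direct sowing or transplanting, and received water-based treatments post-emergence.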

Digitaria sanguinalis = assay: greenhouse post-emergence treatment, DIGSA; conditions: Digitaria sanguinalis, 480 h, 20 DAT, DIGSA
Summary of the method: as §3

Alopecurus myosuroides = assay: greenhouse post-emergence treatment, ALOMY; conditions: Alopecurus myosuroides, 480 h, 20 DAT, ALOMY
Summary of the method: as §3

Setaria viridis = assay: greenhouse post-emergence treatment, SETVI; conditions: Setaria viridis, 480 h, 35 gai/ha (SL 480 g/l), 20 DAT, SETVI, Table X7, read-out: % activity, solo application
Summary of the method: as §3

Lolium multiflorum = assay: greenhouse post-emergence treatment, LOLMU; conditions: Lolium multiflorum, 480 h, 20 DAT, LOLMU
Summary of the method: as §3

Brachiaria decumbens = assay: greenhouse post-emergence treatment, BRADC; conditions: Urochloa decumbens, 480 h, 20 DAT, BRADC
Summary of the method: as §2

Stellaria media = assay: greenhouse post-emergence treatment, STEME; conditions: Stellaria media, 480 h, 20 DAT, STEME, dicamba SL 480 g/l solo 35 gai/ha
Summary of the method: as §2

[1] = dicamba SL 480 g/l solo 17.5 gai/ha
[2] = dicamba SL 480 g/l solo 35 gai/ha
[3] = dicamba SL 480 g/l solo 70 gai/ha
[4] = dicamba SL 480 g/l solo 140 gai/ha
[5] = 35 gai/ha (SL 480 g/l), Table X7, read-out: % activity, solo application

SMILES: COc1c(Cl)ccc(Cl)c1C(=O)O [Dicamba, dicamba]
- inhibition at 35 g/ha (Echinocloa crus-galli): 0%
- inhibition at 70 g/ha (Helianthus annuus): 85%
- inhibition at 17.5 g/ha (Poa annua; [1]): 0%
- inhibition at 35 g/ha (Poa annua; [2]): 0%
- inhibition at 70 g/ha (Poa annua; [3]): 0%
- inhibition at 140 g/ha (Poa annua; [4]): 0%
- inhibition at 70 g/ha (Matricaria chamomilla): 0%
- inhibition at 70 g/ha (Galium aparine): 85%
- inhibition at 17.5 g/ha (Papaver rhoeas; [1]): 20%
- inhibition at 35 g/ha (Papaver rhoeas; [2]): 30%
- inhibition at 17.5 g/ha (Bromus sterilis; [1]): 0%
- inhibition at 35 g/ha (Bromus sterilis; [2]): 0%
- inhibition at 70 g/ha (Bromus sterilis; [3]): 0%
- inhibition at 140 g/ha (Bromus sterilis; [4]): 0%
- inhibition at 17.5 g/ha (Digitaria sanguinalis; [1]): 0%
- inhibition at 35 g/ha (Digitaria sanguinalis; [2]): 0%
- inhibition at 70 g/ha (Digitaria sanguinalis; [3]): 0%
- inhibition at 140 g/ha (Digitaria sanguinalis; [4]): 30%
- inhibition at 140 g/ha (Alopecurus myosuroides; dicamba SL 480 g/l solo 140 gai/ha, read-out: % activity): 0%
- inhibition at 35 g/ha (Alopecurus myosuroides; [5]): 0%
- inhibition at 70 g/ha (Alopecurus myosuroides; 70 gai/ha (SL 480 g/l), Table X7, read-out: % activity, solo application): 0%
- inhibition at 140 g/ha (Alopecurus myosuroides; 140 gai/ha (SL 480 g/l), Table X7, read-out: % activity, solo application): 0%
- inhibition at 280 g/ha (Alopecurus myosuroides; 280 gai/ha (SL 480 g/l), Table X7, read-out: % activity, solo application): 5%
- inhibition at 35 g/ha (Setaria viridis): 0%
- inhibition at 17.5 g/ha (Lolium multiflorum; [1]): 0%
- inhibition at 35 g/ha (Lolium multiflorum; [2]): 0%
- inhibition at 17.5 g/ha (Brachiaria decumbens; [1]): 0%
- inhibition at 35 g/ha (Brachiaria decumbens; dicamba SL 480 g/l solo 35 gai/ha, read-out: % activity): 0%
- inhibition at 140 g/ha (Brachiaria decumbens; [4]): 30%
- inhibition at 35 g/ha (Brachiaria decumbens; [5]): 0%
- inhibition at 35 g/ha (Stellaria media): 80%
